Laboratory results as given in patent publication US20260027122A1, “USE OF IMIDAZOLINONE DERIVATIVE IN COMBINATION WITH RADIOTHERAPY IN TREATMENT OF TUMORS” (CHENGDU BAIYU PHARMACEUTICAL CO., LTD., priority 2022, published 2026).
Marks after values point to notes of the source that are not given here.

What was measured:
CT26 transplanted tumor = assay: Inhibition experiment using BALB/c mouse model bearing CT26 transplanted tumor: tumor volume; assay type: in vivo, BALB/c mice; details: for Tumor volume (Mean ± SEM): Compound A 20 mpk once a day + IR 2 Gy for 5 consecutive days
From the text: (§1) Female BALB/c mice were selected to constitute a CT26 subcutaneous transplanted tumor model by subcutaneous injection of tumor cells. When the mean tumor volume reached 150-200 mm^3, mice were divided into 3 experimental groups: Vehicle, IR, and (Compound A (20 mpk)+IR), respectively, with 8 animals per group and 24 animals in total for grouping experiments. Each irradiated group was given an irradiation dose of 2 Gy for 5 consecutive days, the administration group was given the corresponding drug once a day for 39 consecutive days, and the Vehicle group was given a vehicle.
2.1 Tumor volume: during a drug treatment cycle, the long diameter (a) and short diameter (b) of tumor tissue were measured using an electronic vernier caliper to calculate the volume of the tumor (tumor volume=0.5×a×b^2).

[1] = BALB/c mouse model bearing CT26 transplanted tumor: body weight of mice; assay type: in vivo; details: for Body weight: Compound A 20 mpk once a day + IR 2 Gy for 5 consecutive days, in g (unit assumed)
From the text: as §1
2.2 Body weight of mice: mice were weighed at least twice a week during a drug treatment cycle.

[2] = compound A in combination with IR

SMILES: CCn1c(=O)n(C2CCOCC2)c2nc(Nc3cc(F)c(C(N)=O)cc3C)ncc21 [Compound A]
- Tumor volume (Mean ± SEM) (CT26 transplanted tumor; D0 (day of grouping)): 168 ± 22 mm^3
- Tumor volume (Mean ± SEM) (CT26 transplanted tumor; D4): 260 ± 41 mm^3
- Tumor volume (Mean ± SEM) (CT26 transplanted tumor; D7): 284 ± 47* mm^3
- Tumor volume (Mean ± SEM) (CT26 transplanted tumor; D11): 253 ± 56*** mm^3
- Tumor volume (Mean ± SEM) (CT26 transplanted tumor; D14): 155 ± 28*** mm^3
- Tumor volume (Mean ± SEM) (CT26 transplanted tumor; D18): 101 ± 33***# mm^3
- Tumor volume (Mean ± SEM) (CT26 transplanted tumor; D21): 93 ± 34# mm^3
- Tumor volume (Mean ± SEM) (CT26 transplanted tumor; D25): 169 ± 71# mm^3
- Tumor volume (Mean ± SEM) (CT26 transplanted tumor; D28): 288 ± 105# mm^3
- Tumor volume (Mean ± SEM) (CT26 transplanted tumor; D32): 462 ± 148# mm^3
- Tumor volume (Mean ± SEM) (CT26 transplanted tumor; D35): 605 ± 189# mm^3
- Tumor volume (Mean ± SEM) (CT26 transplanted tumor; D39): 828 ± 247# mm^3
- Effect on the anti-tumor efficacy of radiotherapy (CT26 transplanted tumor; [2]): significantly enhance the anti-tumor efficacy of radiotherapy
- Tumor volume compared to the Vehicle and IR groups (CT26 transplanted tumor; [2]): significantly reduced
- Body weight ([1]; D0): 16.8 ± 0.3
- Body weight ([1]; D4): 17.1 ± 0.3
- Body weight ([1]; D7): 16.0 ± 0.2
- Body weight ([1]; D11): 17.6 ± 0.2
- Body weight ([1]; D14): 17.9 ± 0.2
- Body weight ([1]; D18): 18.6 ± 0.2
- Body weight ([1]; D21): 19.1 ± 0.2
- Body weight ([1]; D25): 19.4 ± 0.3
- Body weight ([1]; D28): 19.7 ± 0.2
- Body weight ([1]; D32): 19.9 ± 0.4
- Body weight ([1]; D35): 20.1 ± 0.3
- Body weight ([1]; D39): 19.6 ± 0.3
- Tolerance of the animals ([1]; compound A in combination with radiotherapy): good tolerance
- Effect on body weight gain of animals ([1]; compound A in combination with radiotherapy, to D39): no effect on body weight gain
